Measured values taken from patent US11813264B2, “PAR1 modulation to alter myelination” (Mayo Foundation for Medical Education and Research, priority 2014, dated 2023).
Entries after “also recorded” stand apart in the source; their conditions may differ.

Assays:
[1] = biological target: T1, PAR1 (Mus musculus, UniProt P30558); assay: Organotypic cerebellar slice culture with PAR1 inhibitor; format: cell-based; design: endogenous in cells; host or cells: primary mouse oligodendrocytes (OPCs shaken from P1 cortical mixed glial cultures); conditions: 70 nM, 7 days
T1 sequence (P30558 22-430): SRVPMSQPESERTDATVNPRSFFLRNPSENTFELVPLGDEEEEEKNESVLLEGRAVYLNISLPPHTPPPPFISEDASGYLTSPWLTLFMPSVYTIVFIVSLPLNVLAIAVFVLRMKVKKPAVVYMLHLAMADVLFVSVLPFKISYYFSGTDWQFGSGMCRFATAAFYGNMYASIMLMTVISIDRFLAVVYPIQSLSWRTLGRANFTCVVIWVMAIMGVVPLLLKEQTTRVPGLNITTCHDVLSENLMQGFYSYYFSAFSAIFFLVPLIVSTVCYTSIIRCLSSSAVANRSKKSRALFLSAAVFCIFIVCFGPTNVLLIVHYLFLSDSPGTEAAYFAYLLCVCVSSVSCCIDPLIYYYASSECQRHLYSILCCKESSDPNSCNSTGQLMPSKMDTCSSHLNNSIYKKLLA
Method: Pharmacologic inhibition of PAR1 in an organotypic cerebellar slice culture system: Cerebellar slices (350 μm) from postnatal day 8 mouse brain were grown in cell culture for 7 days in the presence or absence of 70 nM SCH79797, a small molecule inhibitor of PAR1. Cerebellar slices were then fixed with 2% paraformaldehyde and stained using immunofluorescence techniques for myelin associated makers, including MBP, a marker of mature oligodendrocytes (CC-1), and for a marker of oligodendrocyte progenitor cells (NG2). The photomicrographs in FIG. 16 show staining for each individual antigen, or for all of the antigens collectively in a single slice, as indicated.

[2] = test system: Erk1/2 phosphorylation; assay: Klk6-PAR signaling assay, Erk1/2 phosphorylation by Western blot in Oli-neu; format: cell-based, mouse
Method: Klk6-PAR signaling assays: To examine the ability of Klk6 to mediate PAR-dependent signaling in oligodendrocytes, Oli-neu oligodendroglia (3.5×10^5 cells/well in six-well plates) were treated with Klk6 (150 nM) for 10 min, followed by protein harvest. Cell lysates were analyzed for phosphorylated or nonphosphorylated Erk1/2 by Western blot. In experiments to determine the role of PARs in Klk6 signaling, Oli-neu were preincubated with the PAR1 antagonist, SCH79797 dihydrochloride (50 nM, Tocris Biosciences, Minneapolis, MN) for 30 minutes prior to Klk6 application.
Western blot: Oli-neu lysates were obtained using a buffer containing 1% NP40, 0.5% deoxycholate, 10% glycerol, and 20 mM Tris base and separated on SDS-polyacrylamide gels prior to transfer. Membranes were blocked with 5% milk in TBS-T and incubated overnight with primary antibodies including rabbit anti-phospho-Erk1/2 (1:1,000, Cell Signaling Technology, Danvers, MA), followed with a species-appropriate horseradish peroxidase-conjugated secondary antibody (1:20,000 GE Healthcare Unlimited, UK). Signal was detected using Chemiluminescence Supersignal Pico (Pierce, Rockford, IL). Western blots were repeated three times from independent cultures, scanned, and quantified by densitometry (BioRad Quantity One 1-D Analysis Software, BioRad, Hercules, CA). Erk1/2 signal was normalized to its nonphosphorylated form. Equal loading was verified by reprobing blots for […] (Novus Biologicals, Littleton, CO).

[3] = biological target: T1, PAR1; assay: Neural precursor cell proliferation (BrdU incorporation); format: cell-based; design: endogenous in cells; conditions: 70, 35, 10 or 1 nM; NPCs from adult SVZ
Method: Effects of pharmacologic inhibition of PAR1 on NPC proliferation in vitro: NPCs were isolated from the SVZ of 8 week-old adult C57BL6/J mice, cultured in suspension, and treated with 70, 35, 10, or 1 nM of SCH79797, a small molecule inhibitor of PAR1.

[4] = test system: oligodendrocyte progenitor cells (OPCs); assay: OPC process outgrowth; format: cell-based, mouse
Method: Oligodendrocyte Cultures: Purified cortical oligodendrocyte progenitor cells (OPCs) and differentiated oligodendrocytes were isolated from mixed glial cultures derived from postnatal day 1 mice (McCarthy and de Vellis, J Cell Blot 85:890-902, 1980). Glial cultures were grown in media containing DMEM, 2 mM Glutamax, 1 mM sodium pyruvate, 20 mM HEPES, and 10% heat-inactivated fetal calf serum (Atlanta Biologicals, Lawrenceville, GA). OPCs were isolated from 10 days-in-vitro (DIV) mixed glial cultures by overnight shaking and purified by differential adhesion. OPCs were seeded in defined Neurobasal A media containing 1% N2, 50 U/mL penicillin/streptomycin, 2 mM Glutamax, 1 mM sodium pyruvate, 0.45% glucose, and 50 μM β-mercaptoethanol (Sigma Aldrich, USA). OPCs were seeded at 3×10^4/cm^2 onto tissue culture plastic or 12 mm glass cover slips coated with poly-L-lysine (PLL, 10 μg/mL). After 24 h, cultures were 92-98% immunoreactive (IR) for sulfatide (O4) and by 72 hours at least 80% were also MBP-IR.
PAR agonist-induced changes in oligodendrocyte morphology: To determine the effects of recombinant Klk6, Klk1, thrombin, or PAR1-AP on oligodendroglia, 3 DIV PAR1^+/+, PAR1^−/−, and PAR2^−/− oligodendrocytes, PAR1^+/+ OPCs immediately post purification, or Oli-neu cells were grown on cover slips in the presence of agonists for 24 h. For ATP toxicity assays, oligodendrocytes were incubated with ATP (50 μM, Sigma Aldrich) in the presence of Klk6 or Klk1. Following each treatment, oligodendrocyte and OPC cultures were immunolabeled for O4 to visualize the cell body and processes. Oli-neu processes were visualized by staining the actin cytoskeleton with Cy3-conjugated Phalloidin.
To assess the effects of Klk6 and other PAR1 agonists on oligodendrocyte morphology and process stability, 20× digital micrographs were overlaid with a 780 μm^2 grid and ImageJ software 1.45r (National Institutes of Health) used to record cell number and the number of processes crossing horizontal grid lines (Scarisbrick et al., Brain 125:1283-1296, 2002). Data are expressed as the mean number of O4^+ or Phalloidin^+ processes per DAPI^+ cell (±SEM).
Changes in OPC or oligodendrocyte morphology were quantified from five microscopic fields per cover slip with the mean and SEM calculated across three cover slips per experiment. Each experiment was repeated at least twice using independent cultures. Analysis of oligodendrocyte morphology was performed without knowledge of treatment groups.

[5] = biological target: T1, PAR1; assay: Oligodendrocyte gene expression after PAR1 inhibitor treatment, real time RT-PCR; format: cell-based; design: endogenous in cells; host or cells: primary mouse oligodendrocytes (OPCs shaken from P1 cortical mixed glial cultures); conditions: 70 nM for 48 hours

SMILES: CC(C)c1ccc(Cn2ccc3c4c(N)nc(NC5CC5)nc4ccc32)cc1 [SCH79797]
- number of mature oligodendrocytes (CC-1) [1]: significant increases
- number of progenitor cells positive for NG2 [1]: significant increases
- abundance of MBP ([1]; P8 cerebellar slices): significant increases
- ability of Klk6 to induce MAPK (Erk1/2) signaling in presence of inhibitor ([2]; SCH79797 50 nM, preincubated 30 minutes): blocked; also recorded: abolished
- Erk1/2 phosphorylation ([2]; treatment alone, Klk6 10 minutes): No significant changes
- BrdU incorporation [3]: greater levels
- Klk6-mediated inhibition of process outgrowth in presence of inhibitor ([4]; SCH79797 50 nM): diminished
- attenuation of the ability of Klk6 to reduce OPC process outgrowth ([4]; SCH79797 50 nM for 3 hours prior to Klk6): ~34%
- OPC process outgrowth relative to vehicle controls ([4]; SCH79797 alone): no significant effect
- NogoA RNA [5]: decrease
- Olig2 RNA [5]: decrease
- expression of MBP RNA [5]: significant increase
- expression of PLP RNA ([5]; oligodendrocytes 24 hours in culture): significant increase
